{"source": "patent US11219898B2", "about": "“Molecular separation by diffusion using an EWOD device” (Sharp Life Science (EU) Limited, priority 2019, dated 2022)", "assay": "Diffusion of fluorescein or calcein through a droplet interface bilayer in an AM-EWOD device", "format": "physicochemical", "description": "An investigation of the transport of aqueous phase elements between droplets suspended in a non-aqueous supporting medium is conducted. Phospholipid stabilized water in oil droplets are dispensed within an AM-EWOD device. Such droplets are used to produce droplet interface bilayers (DIBs) by the bringing together of individual droplets within the AM-EWOD device. DIBs are used to study diffusion of a solute across the bilayer membrane, as well as to study active transport through pores or ion channels formed in the DIB. In a first experiment, diffusion of fluorescein or calcein through a bilayer is investigated. Under conditions of neutral pH, calcein, a derivative of fluorescein, is generally more polar than fluorescein. […] Thus, fluorescein may more readily diffuse through a bilayer, whereas calcein may not. Three populations of droplets are dispensed within an AM-EWOD device. A first population contains buffer, a second population contains fluorescein at 100 μM concentration, and a third population contains calcein at 100 μM concentration. Droplets containing buffer are brought into contact respectively with droplets containing fluorescein or calcein, under control of the AM-EWOD device. Fluorescence intensity is determined at time t0, t1 (30 minutes) and t2 (60 minutes), with excitation wavelength 494 nm and emission wavelength 515 nm.", "data": [{"smiles": "O=C(O)CN(CC(=O)O)Cc1cc2c(cc1O)Oc1cc(O)c(CN(CC(=O)O)CC(=O)O)cc1C21OC(=O)c2ccccc21", "note": "[calcein]", "values": [{"measurement": "Fluorescence from the buffer containing droplet after DIB formation", "setting": "after 60 minutes, 100 μM dye droplet, excitation 494 nm, emission 515 nm", "value": "no detectable fluorescence"}, {"measurement": "Diffusion across the bilayer", "setting": "summary of results", "value": "not"}]}]}
